In ChEMBL document CHEMBL1201862, “PubChem BioAssay data set” (2004):
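Tested at 5 concentrations; 48 h exposure; 96-well plates; endpoints linearly interpolated, else capped at highest concentration. GI50 is the concentration that inhibits growth by half.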 Calls of active or inactive are those of the source. Cut-off read from the data, not from the text of the source: active = GI50 up to about 1.1 µM and inactive = higher.

Experiments:
Experiment in all cases: inhibition of tumour cell growth, NCI panel, 48 h
Malme-3M = test system: Malme-3M
CCRF-CEM = test system: CCRF-CEM
SN12C = test system: SN12C
UO-31 = test system: UO-31
Hs-578T = test system: Hs-578T
ACHN = test system: ACHN
NCI-H460 = test system: NCI-H460
PC-3 = test system: PC-3
A498 = test system: A498
NCI/ADR-RES = test system: NCI/ADR-RES
IGROV-1 = test system: IGROV-1
MDA-N = test system: MDA-N
SF-539 = test system: SF-539
SF-268 = test system: SF-268
U-251 = test system: U-251
HCT-116 = test system: HCT-116
MDA-MB-231 = test system: MDA-MB-231
RXF 393 = test system: RXF 393
SNB-19 = test system: SNB-19
SNB-75 = test system: SNB-75

| SMILES | GI50 (Malme-3M) | GI50 (CCRF-CEM) | GI50 (SN12C) | GI50 (UO-31) | GI50 (Hs-578T) | GI50 (ACHN) | GI50 (NCI-H460) | GI50 (PC-3) | GI50 (A498) | GI50 (NCI/ADR-RES) | GI50 (IGROV-1) | GI50 (MDA-N) | GI50 (SF-539) | GI50 (SF-268) | GI50 (U-251) | GI50 (HCT-116) | GI50 (MDA-MB-231) | GI50 (RXF 393) | GI50 (SNB-19) | GI50 (SNB-75) |
| --- | --- | --- | --- | --- | --- | --- | --- | --- | --- | --- | --- | --- | --- | --- | --- | --- | --- | --- | --- | --- |
| Clc1ccc2c(c1)N(CCCN1CCCC13CCCCC3)c1ccccc1S2 | 14.2 µM (inactive) | 4.06 µM (inactive) | 13.4 µM (inactive) | 8.38 µM (inactive) | 13.5 µM (inactive) | 20.3 µM (inactive) | 7.48 µM (inactive) | 8.04 µM (inactive) | 16 µM (inactive) | 14.7 µM (inactive) | 12.3 µM (inactive) | 13.1 µM (inactive) | 17.2 µM (inactive) | 18.8 µM (inactive) | 10.2 µM (inactive) | 13.9 µM (inactive) | 8.85 µM (inactive) | 5.93 µM (inactive) | 13.7 µM (inactive) | – |
| Cc1ccc2nc(CC(=O)c3ccc4ccccc4c3)c(O)nc2c1 | > 100 µM (inactive) | > 100 µM (inactive) | > 100 µM (inactive) | > 100 µM (inactive) | > 100 µM (inactive) | > 100 µM (inactive) | > 100 µM (inactive) | > 100 µM (inactive) | > 100 µM (inactive) | > 100 µM (inactive) | > 100 µM (inactive) | > 100 µM (inactive) | > 100 µM (inactive) | > 100 µM (inactive) | > 100 µM (inactive) | > 100 µM (inactive) | > 100 µM (inactive) | > 100 µM (inactive) | > 100 µM (inactive) | > 100 µM (inactive) |
| CCOC(=O)c1c(SCCN2CCCC2)n(-c2ccccc2)c(=S)n(-c2ccccc2)c1=O | 1.56 µM (inactive) | 0.951 µM (active) | 1.71 µM (inactive) | – | 4.7 µM (inactive) | 1.72 µM (inactive) | 5.81 µM (inactive) | 1.66 µM (inactive) | 10.4 µM (inactive) | 25.8 µM (inactive) | 2.03 µM (inactive) | 2.36 µM (inactive) | 2.38 µM (inactive) | 4.85 µM (inactive) | 6.14 µM (inactive) | 4.27 µM (inactive) | 2.08 µM (inactive) | 1.74 µM (inactive) | 17.4 µM (inactive) | 6.93 µM (inactive) |
| CC/C(Cl)=N\OC(=O)Nc1ccc(C#N)cc1 | 4.11 µM (inactive) | 1.63 µM (inactive) | 16.4 µM (inactive) | 17.2 µM (inactive) | 21.9 µM (inactive) | 14.3 µM (inactive) | 19.5 µM (inactive) | 16.7 µM (inactive) | 16.6 µM (inactive) | 13.3 µM (inactive) | 16.4 µM (inactive) | 16.3 µM (inactive) | 16.6 µM (inactive) | 18.1 µM (inactive) | 17.1 µM (inactive) | 14.6 µM (inactive) | 15.3 µM (inactive) | 8.75 µM (inactive) | > 100 µM (inactive) | 14.9 µM (inactive) |
| NCCNCC(O)CO (centres undefined) | > 100 µM (inactive) | – | > 100 µM (inactive) | > 100 µM (inactive) | > 100 µM (inactive) | > 100 µM (inactive) | > 100 µM (inactive) | > 100 µM (inactive) | > 100 µM (inactive) | > 100 µM (inactive) | > 100 µM (inactive) | > 100 µM (inactive) | > 100 µM (inactive) | > 100 µM (inactive) | > 100 µM (inactive) | > 100 µM (inactive) | > 100 µM (inactive) | > 100 µM (inactive) | > 100 µM (inactive) | > 100 µM (inactive) |
| Br/C(=N\N=c1/nn[nH][nH]1)c1ccncc1 | > 100 µM (inactive) | > 100 µM (inactive) | > 100 µM (inactive) | – | > 100 µM (inactive) | > 100 µM (inactive) | > 100 µM (inactive) | > 100 µM (inactive) | > 100 µM (inactive) | > 100 µM (inactive) | > 100 µM (inactive) | > 100 µM (inactive) | > 100 µM (inactive) | > 100 µM (inactive) | > 100 µM (inactive) | > 100 µM (inactive) | > 100 µM (inactive) | > 100 µM (inactive) | > 100 µM (inactive) | > 100 µM (inactive) |
| COC(=O)CCc1ccc2c(c1)CC1(C2)Cc2ccc3c(c2C1)CCC3 (centres undefined) | > 100 µM (inactive) | 61.7 µM (inactive) | 80 µM (inactive) | 32.4 µM (inactive) | 99.1 µM (inactive) | > 100 µM (inactive) | > 100 µM (inactive) | > 100 µM (inactive) | > 100 µM (inactive) | > 100 µM (inactive) | > 100 µM (inactive) | 87.9 µM (inactive) | > 100 µM (inactive) | > 100 µM (inactive) | > 100 µM (inactive) | > 100 µM (inactive) | 89.1 µM (inactive) | 49.1 µM (inactive) | > 100 µM (inactive) | > 100 µM (inactive) |
| c1ccc2c(c1)nc1n2CCCn2ccnc2-1 | > 100 µM (inactive) | – | > 100 µM (inactive) | 99.3 µM (inactive) | > 100 µM (inactive) | 73.6 µM (inactive) | > 100 µM (inactive) | > 100 µM (inactive) | > 100 µM (inactive) | 27 µM (inactive) | > 100 µM (inactive) | > 100 µM (inactive) | 96.2 µM (inactive) | > 100 µM (inactive) | > 100 µM (inactive) | > 100 µM (inactive) | > 100 µM (inactive) | > 100 µM (inactive) | > 100 µM (inactive) | > 100 µM (inactive) |
| Cc1c(F)c(N)c2c(=O)cc(-c3ccc(NC(=O)C(N)CCCNC(=N)N)c(F)c3)oc2c1F (centres undefined) | 27.5 µM (inactive) | > 88.3 µM (inactive) | 17.1 µM (inactive) | 22.8 µM (inactive) | 28.5 µM (inactive) | 19.7 µM (inactive) | 0.146 µM (active) | 30.5 µM (inactive) | 0.0615 µM (active) | 23.9 µM (inactive) | 0.0759 µM (active) | 32.1 µM (inactive) | 16.7 µM (inactive) | 32.7 µM (inactive) | 3.6 µM (inactive) | 13.2 µM (inactive) | 22.5 µM (inactive) | 21.6 µM (inactive) | 24.8 µM (inactive) | – |
| COC1/C=C\OC2(C)Oc3c(C)c(O)c4c(O)c(c(/C=N\OCCCc5ccccc5)c(O)c4c3C2=O)NC(=O)/C(C)=C\C=C/C(C)C(O)C(C)C(O)C(C)C(OC(C)=O)C1C (centres undefined) | 3.54 µM (inactive) | 3.08 µM (inactive) | 1.81 µM (inactive) | – | 6.31 µM (inactive) | 2.56 µM (inactive) | 3.49 µM (inactive) | 3.18 µM (inactive) | 6.93 µM (inactive) | 3.66 µM (inactive) | 2.39 µM (inactive) | 3.44 µM (inactive) | 2.93 µM (inactive) | 4.93 µM (inactive) | 4.36 µM (inactive) | 2.3 µM (inactive) | 2.25 µM (inactive) | 2.9 µM (inactive) | 6.32 µM (inactive) | 2.62 µM (inactive) |
| Cc1nc2ccc([N+](=O)[O-])cc2c(=O)n1C(=S)Nc1cccc(Cl)c1 | 21.1 µM (inactive) | 12.9 µM (inactive) | 20 µM (inactive) | 5.24 µM (inactive) | 21.5 µM (inactive) | 17.5 µM (inactive) | 14.9 µM (inactive) | 15.2 µM (inactive) | 9.4 µM (inactive) | 19.4 µM (inactive) | – | 16.4 µM (inactive) | 19.5 µM (inactive) | 16.8 µM (inactive) | 18.5 µM (inactive) | 16 µM (inactive) | 15.5 µM (inactive) | 13.9 µM (inactive) | 27.8 µM (inactive) | 16.5 µM (inactive) |
| COc1cc(CSc2ccc(O)cc2)cc(O)c1O | 37.6 µM (inactive) | 8.36 µM (inactive) | 25.2 µM (inactive) | 27.2 µM (inactive) | 42.1 µM (inactive) | 28.1 µM (inactive) | > 10 µM (inactive) | 49.3 µM (inactive) | > 100 µM (inactive) | 23.8 µM (inactive) | 35.3 µM (inactive) | 26.7 µM (inactive) | 29.9 µM (inactive) | 28.8 µM (inactive) | 28.8 µM (inactive) | 22.1 µM (inactive) | 25.4 µM (inactive) | 50.6 µM (inactive) | 37 µM (inactive) | 32.1 µM (inactive) |
| N#CC1=C(N)OC(c2ccc([N+](=O)[O-])cc2)C1(C#N)C#N (centres undefined) | 10.2 µM (inactive) | 2.57 µM (inactive) | 14.5 µM (inactive) | 6.27 µM (inactive) | 25.9 µM (inactive) | 10.2 µM (inactive) | – | 17.1 µM (inactive) | 14.4 µM (inactive) | 19.6 µM (inactive) | 15.6 µM (inactive) | 9.18 µM (inactive) | 15.1 µM (inactive) | 23.3 µM (inactive) | 25.4 µM (inactive) | 9.77 µM (inactive) | 16.4 µM (inactive) | 7.23 µM (inactive) | 22.4 µM (inactive) | 20.6 µM (inactive) |
| O=C(CCl)Nc1cc(Cl)c(Cl)cc1Cl | 1.41 µM (inactive) | 0.966 µM (active) | 1.52 µM (inactive) | – | 3.4 µM (inactive) | 2.22 µM (inactive) | 1.73 µM (inactive) | 1.76 µM (inactive) | 5.15 µM (inactive) | 2.05 µM (inactive) | 1.81 µM (inactive) | 1.69 µM (inactive) | 1.67 µM (inactive) | 2.3 µM (inactive) | 2.01 µM (inactive) | 1.59 µM (inactive) | 1.56 µM (inactive) | 2.65 µM (inactive) | 2.27 µM (inactive) | – |
